Measured values: US6458978B1, “Fluorous phosphines and process for their preparation” (Atofina Vlissingen B.V., priority 1998, dated 2002)

Assay: Solubility of dppe and dppe derivatives G{m,x} in perfluorinated and non-fluorinated solvents
Assay type: physicochemical

solubility at room temperature, THF: − (−: <0.01 g/ml)
solubility at room temperature, toluene: − (−: <0.01 g/ml)
solubility at room temperature, FC-72 (FC-72: mixture of perfluorinated hexanes): + (+: >0.1 g/ml)
Compound: FC(F)(F)C(F)(F)C(F)(F)C(F)(F)C(F)(F)C(F)(F)CC[Si](CCC(F)(F)C(F)(F)C(F)(F)C(F)(F)C(F)(F)C(F)(F)F)(CCC(F)(F)C(F)(F)C(F)(F)C(F)(F)C(F)(F)C(F)(F)F)c1ccc(P(CCP(c2ccc([Si](CCC(F)(F)C(F)(F)C(F)(F)C(F)(F)C(F)(F)C(F)(F)F)(CCC(F)(F)C(F)(F)C(F)(F)C(F)(F)C(F)(F)C(F)(F)F)CCC(F)(F)C(F)(F)C(F)(F)C(F)(F)C(F)(F)C(F)(F)F)cc2)c2ccc([Si](CCC(F)(F)C(F)(F)C(F)(F)C(F)(F)C(F)(F)C(F)(F)F)(CCC(F)(F)C(F)(F)C(F)(F)C(F)(F)C(F)(F)C(F)(F)F)CCC(F)(F)C(F)(F)C(F)(F)C(F)(F)C(F)(F)C(F)(F)F)cc2)c2ccc([Si](CCC(F)(F)C(F)(F)C(F)(F)C(F)(F)C(F)(F)C(F)(F)F)(CCC(F)(F)C(F)(F)C(F)(F)C(F)(F)C(F)(F)C(F)(F)F)CCC(F)(F)C(F)(F)C(F)(F)C(F)(F)C(F)(F)C(F)(F)F)cc2)cc1 [G{3,6}]
